Data as given in patent US20250170268A1, “METHODS AND TOOLS FOR CONJUGATION TO ANTIBODIES” (priority 2022, published 2025).

Assays:
Type in all cases: cell-based
Conditions in all cases: Homo sapiens
[1] = system: CEACAM5-positive SNU-16 cells; experiment: Cell viability assay (Cell Titer-Glo, six days) on SNU-16
Description: (§1) Cytotoxicity effects of the ADC on the cancer cell lines were measured by cell viability assays. Cells were seeded in a volume of 90 μL in 96-well plates the day before treatment. Test compounds (ADCs or free payloads) were formulated at 10-fold the starting concentration in cell culture medium. Test compounds were serial diluted (1:4) and 10 μL of each dilution was added to the cells in triplicates. Plates were cultured at 37° C. in a CO2 incubator for six days. For cell viability measurement, Cell Titer-Glo® reagent (Promega™ Corp, Madison, WI) was added to each well, and plates processed according to the manufacturer's instructions. Luminescence signals were measured using a Varioskan plate reader (Thermo Fisher). Luminescence readings were converted to % viability relative to untreated cells. Data was fitted with non-linear regression analysis, using log (inhibitor) vs. response, variable slope, 4-parameter fit equation using Genedata Screener or GraphPad Prism. Data is shown as % relative cell viability vs. molar compound concentration, error bars indicating standard deviation (SD) of duplicates or triplicates. Geometric mean values of IC50s derived from multiple experiments were calculated.
(§2) A fold reduction in IC50, defined as a S[…], was calculated by dividing the IC50 against CEACAM5-negative MDA-MB-231 cells by the IC50 against each CEACAM5-positive cell line (see Table 6). […]

[2] = system: CEACAM5-positive MKN-45 cells; experiment: Cell viability assay (Cell Titer-Glo, six days) on MKN-45
Description: as §1, §2

[3] = system: CEACAM5-positive LS174T cells; experiment: Cell viability assay (Cell Titer-Glo, six days) on LS174T
Description: as §1

[4] = system: CEACAM5-negative MDA-MB-231 cells; experiment: Cell viability assay (Cell Titer-Glo, six days) on MDA-MB-231
Description: as §1, §2

[5] = system: CEACAM5-positive SK-CO-1 cells; experiment: Cell viability assay (Cell Titer-Glo, six days) on SK-CO-1
Description: as §1, §2

CC[C@@]1(O)C(=O)OCc2c1cc1n(c2=O)Cc2c-1nc1cc(F)c(C)c3c1c2[C@@H](N)CC3 [Payload, (1S,9S)-1-Amino-9-ethyl-5-fluoro-1,2,3,9,12,15-hexahydro-9-hydroxy-4-methyl-10H, 13H-benzo (de) pyrano (3′,4′: 6,7) indolizino (1,2-b) quinoline-10,13-dione]
IC50 ([1]; 144 h, read-out: SNU-16 IC50 [M], n ≥ 2, SNU-16, CEACAM5 positive, six days, geometric mean): 2.9e-10 M | Emax ([1]; SNU-16, at the highest tested compound concentration, read-out: Maximal effect compared to untreated controls, SNU-16): -99% | IC50 ([2]; 144 h, read-out: MKN-45 IC50 [M], n ≥ 2, MKN-45, CEACAM5 positive, six days, geometric mean): 6.6e-10 M | Emax ([2]; MKN-45, at the highest tested compound concentration, read-out: Maximal effect compared to untreated controls, MKN-45): -100% | IC50 ([3]; 144 h, read-out: LS174T IC50 [M], n ≥ 2, CEACAM5 positive, six days, geometric mean): 3e-10 M | Emax ([3]; at the highest tested compound concentration, read-out: Maximal effect compared to untreated controls, LS174T): -91% | IC50 ([4]; 144 h, read-out: MDA-MB-231 IC50 [M], n ≥ 3, MDA-MB-231, CEACAM5 negative, six days, n/a = below −50% effect cut-off): 6e-10 M | Emax ([4]; MDA-MB-231, at the highest tested compound concentration, read-out: Maximal effect compared to untreated controls, MDA-MB-231): -91% | IC50 ([5]; 144 h, read-out: SK-CO-1 IC50 [M], n ≥ 2, SK-CO-1, CEACAM5 positive, six days, geometric mean): 2.2e-10 M | Emax ([5]; SK-CO-1, at the highest tested compound concentration, read-out: Maximal effect compared to untreated controls, SK-CO-1): -97%
